Measurements: PMC4286194 (Biochemical Journal, 2015)

What was measured:
[1] = molecular target: T1, DDR2 (Homo sapiens, UniProt Q16832); test: Kinase profiling; format: biochemical
T1 sequence (Q16832 22-855): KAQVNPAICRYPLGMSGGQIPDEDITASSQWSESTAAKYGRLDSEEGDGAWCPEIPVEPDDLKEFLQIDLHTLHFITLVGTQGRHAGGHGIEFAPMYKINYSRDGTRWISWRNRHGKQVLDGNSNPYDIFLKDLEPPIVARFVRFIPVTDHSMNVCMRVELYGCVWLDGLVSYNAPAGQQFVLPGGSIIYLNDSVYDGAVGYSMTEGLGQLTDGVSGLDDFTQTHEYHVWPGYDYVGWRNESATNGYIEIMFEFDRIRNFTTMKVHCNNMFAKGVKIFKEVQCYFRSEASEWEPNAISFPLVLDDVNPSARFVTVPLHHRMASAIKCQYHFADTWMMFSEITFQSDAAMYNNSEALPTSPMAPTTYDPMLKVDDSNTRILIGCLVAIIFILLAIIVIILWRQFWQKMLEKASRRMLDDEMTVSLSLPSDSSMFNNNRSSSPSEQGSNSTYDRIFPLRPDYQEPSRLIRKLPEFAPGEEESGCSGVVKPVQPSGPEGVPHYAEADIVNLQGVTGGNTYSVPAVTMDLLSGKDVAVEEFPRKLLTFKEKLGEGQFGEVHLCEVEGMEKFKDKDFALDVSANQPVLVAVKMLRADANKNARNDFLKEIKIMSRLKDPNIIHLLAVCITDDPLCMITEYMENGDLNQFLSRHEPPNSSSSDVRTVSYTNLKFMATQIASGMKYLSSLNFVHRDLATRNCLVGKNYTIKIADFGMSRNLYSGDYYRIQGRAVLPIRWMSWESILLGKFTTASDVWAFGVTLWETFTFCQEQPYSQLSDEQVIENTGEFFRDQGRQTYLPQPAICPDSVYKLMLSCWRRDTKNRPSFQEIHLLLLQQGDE

[2] = molecular target: TESK1 (Homo sapiens, UniProt Q15569); test: Kinase profiling; format: biochemical
[3] = molecular target: TTBK1 (Homo sapiens, UniProt Q5TCY1); test: Kinase profiling; format: biochemical
[4] = molecular target: MNK1 (Homo sapiens, UniProt Q9BUB5); test: Kinase profiling; format: biochemical
[5] = molecular target: T2, BRSK2 (Homo sapiens, UniProt Q8IWQ3); test: Kinase profiling; format: biochemical
T2 sequence (Q8IWQ3 1-736): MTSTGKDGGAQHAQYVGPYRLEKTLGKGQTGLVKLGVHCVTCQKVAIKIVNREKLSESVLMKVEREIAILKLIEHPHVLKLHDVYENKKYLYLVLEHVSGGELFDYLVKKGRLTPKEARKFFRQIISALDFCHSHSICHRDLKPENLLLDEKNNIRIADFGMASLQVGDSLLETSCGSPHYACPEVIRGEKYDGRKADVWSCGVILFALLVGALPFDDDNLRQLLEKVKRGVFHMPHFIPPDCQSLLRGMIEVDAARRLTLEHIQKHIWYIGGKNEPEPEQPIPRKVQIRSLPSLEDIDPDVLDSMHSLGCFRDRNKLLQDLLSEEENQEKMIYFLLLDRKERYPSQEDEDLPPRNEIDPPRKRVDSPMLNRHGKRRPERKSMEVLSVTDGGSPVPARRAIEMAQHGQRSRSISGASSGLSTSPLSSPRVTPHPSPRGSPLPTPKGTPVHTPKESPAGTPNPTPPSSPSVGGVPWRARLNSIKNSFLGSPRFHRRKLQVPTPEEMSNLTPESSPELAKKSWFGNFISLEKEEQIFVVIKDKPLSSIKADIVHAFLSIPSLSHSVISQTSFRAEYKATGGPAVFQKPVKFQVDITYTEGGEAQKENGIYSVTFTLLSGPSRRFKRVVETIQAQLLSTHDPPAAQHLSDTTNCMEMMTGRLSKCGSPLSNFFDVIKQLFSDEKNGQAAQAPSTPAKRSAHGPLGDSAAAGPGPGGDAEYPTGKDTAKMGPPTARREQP

[6] = system: Bone-marrow-derived macrophages; test: Markers of alternatively activated macrophages (qPCR); format: cell-based, mouse; conditions: 3 μM bosutinib or 0.3 μM dasatinib 1 h, then LPS
Description: mRNA was extracted from cells using the MicroElute Total RNA kit following the manufacturers’ instructions (Omega Bio-Tek). cDNA was generated from 0.5 μg of total RNA using the iScript cDNA synthesis kit and quantified by quantitative real-time PCR (qPCR) using the SsoFast EvaGreen Supermix on a CFX384 real-time system (Bio-Rad Laboratories). The relative expression of each gene was calculated from CT values using the Pfaffl method and was normalized against the mRNA levels of housekeeping genes including 18S RNA and GAPDH. Results are reported relative to untreated control cells, which were set to 1.

[7] = system: Bone-marrow-derived macrophages; test: IL-10 secretion (BIOPLEX) in LPS-stimulated macrophages; format: cell-based, mouse; conditions: for EC50: Mus musculus, Macrophage, read-out: EC50 for elevation of IL-10 secretion; for IL-10 production at optimal dose: dasatinib 300 nM, bosutinib 3 μM, HG-9-91-01 500 nM, LPS-stimulated
Description: The concentration of TNFα, IL-6, IL-10 and IL-12p40 in cell-free culture supernatants were measured using the Bio-Plex Pro Assay system (Bio-Rad).

[8] = molecular target: T3, ZAP70 (Homo sapiens, UniProt P43403); test: Kinase profiling; format: biochemical
T3 sequence (P43403 1-619): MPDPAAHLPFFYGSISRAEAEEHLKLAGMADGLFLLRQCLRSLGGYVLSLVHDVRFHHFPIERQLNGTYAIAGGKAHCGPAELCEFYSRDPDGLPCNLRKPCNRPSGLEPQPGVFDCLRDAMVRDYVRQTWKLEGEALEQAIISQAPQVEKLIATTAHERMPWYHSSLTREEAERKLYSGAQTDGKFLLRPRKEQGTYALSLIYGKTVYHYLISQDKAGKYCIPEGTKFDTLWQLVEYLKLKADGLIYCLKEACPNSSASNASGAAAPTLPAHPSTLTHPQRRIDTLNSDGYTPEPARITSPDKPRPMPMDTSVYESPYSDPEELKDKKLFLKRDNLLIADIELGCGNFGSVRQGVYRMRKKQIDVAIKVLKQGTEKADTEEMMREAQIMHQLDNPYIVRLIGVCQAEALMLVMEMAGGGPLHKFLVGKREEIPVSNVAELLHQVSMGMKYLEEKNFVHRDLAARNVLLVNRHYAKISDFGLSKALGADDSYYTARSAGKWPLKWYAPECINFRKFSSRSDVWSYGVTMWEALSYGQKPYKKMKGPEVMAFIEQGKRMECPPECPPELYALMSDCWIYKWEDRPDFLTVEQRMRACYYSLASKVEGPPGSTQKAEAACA

[9] = molecular target: PDGFRA (Homo sapiens, UniProt P16234); test: Kinase profiling; format: biochemical
PDGFRA, sequence (P16234 24-1089): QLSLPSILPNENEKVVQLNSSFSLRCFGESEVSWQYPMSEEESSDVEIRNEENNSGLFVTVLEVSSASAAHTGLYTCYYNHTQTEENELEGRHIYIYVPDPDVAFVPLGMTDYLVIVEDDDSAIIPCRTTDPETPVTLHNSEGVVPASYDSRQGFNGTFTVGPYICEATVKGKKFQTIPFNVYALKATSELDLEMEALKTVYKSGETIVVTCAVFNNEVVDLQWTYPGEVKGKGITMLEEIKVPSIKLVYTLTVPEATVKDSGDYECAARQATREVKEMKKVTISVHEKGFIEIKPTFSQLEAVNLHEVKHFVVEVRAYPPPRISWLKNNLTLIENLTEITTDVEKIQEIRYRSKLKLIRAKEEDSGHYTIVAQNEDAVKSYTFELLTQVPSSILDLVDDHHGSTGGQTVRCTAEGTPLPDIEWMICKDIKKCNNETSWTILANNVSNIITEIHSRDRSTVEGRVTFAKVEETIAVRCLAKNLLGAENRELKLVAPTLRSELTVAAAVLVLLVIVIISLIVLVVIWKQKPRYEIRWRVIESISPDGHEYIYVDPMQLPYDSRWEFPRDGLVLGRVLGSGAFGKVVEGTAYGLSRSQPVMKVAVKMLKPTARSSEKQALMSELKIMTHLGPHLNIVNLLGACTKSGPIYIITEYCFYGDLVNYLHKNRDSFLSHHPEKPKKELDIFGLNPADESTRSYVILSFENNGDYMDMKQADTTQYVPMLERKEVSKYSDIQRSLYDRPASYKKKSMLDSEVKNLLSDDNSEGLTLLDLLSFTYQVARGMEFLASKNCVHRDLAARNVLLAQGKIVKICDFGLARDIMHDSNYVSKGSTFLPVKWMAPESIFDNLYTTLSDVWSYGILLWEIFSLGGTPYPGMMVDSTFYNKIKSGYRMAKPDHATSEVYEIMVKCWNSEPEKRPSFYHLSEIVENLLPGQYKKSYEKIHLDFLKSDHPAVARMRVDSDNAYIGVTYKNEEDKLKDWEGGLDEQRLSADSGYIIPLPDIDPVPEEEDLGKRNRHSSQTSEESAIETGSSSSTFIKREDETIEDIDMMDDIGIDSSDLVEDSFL

MNK1, sequence (Q9BUB5 whole entry): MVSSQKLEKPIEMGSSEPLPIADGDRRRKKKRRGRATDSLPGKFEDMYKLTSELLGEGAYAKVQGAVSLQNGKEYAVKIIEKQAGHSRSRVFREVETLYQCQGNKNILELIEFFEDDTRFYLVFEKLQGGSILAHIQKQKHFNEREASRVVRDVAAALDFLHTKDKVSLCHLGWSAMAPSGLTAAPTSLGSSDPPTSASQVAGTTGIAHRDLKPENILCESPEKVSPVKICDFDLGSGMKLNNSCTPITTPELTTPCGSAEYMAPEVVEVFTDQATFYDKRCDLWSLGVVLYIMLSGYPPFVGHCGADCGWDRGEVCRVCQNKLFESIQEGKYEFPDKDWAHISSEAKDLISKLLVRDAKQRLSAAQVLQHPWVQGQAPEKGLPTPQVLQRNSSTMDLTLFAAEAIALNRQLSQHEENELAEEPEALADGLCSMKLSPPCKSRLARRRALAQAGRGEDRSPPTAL
TESK1, sequence (Q15569 whole entry): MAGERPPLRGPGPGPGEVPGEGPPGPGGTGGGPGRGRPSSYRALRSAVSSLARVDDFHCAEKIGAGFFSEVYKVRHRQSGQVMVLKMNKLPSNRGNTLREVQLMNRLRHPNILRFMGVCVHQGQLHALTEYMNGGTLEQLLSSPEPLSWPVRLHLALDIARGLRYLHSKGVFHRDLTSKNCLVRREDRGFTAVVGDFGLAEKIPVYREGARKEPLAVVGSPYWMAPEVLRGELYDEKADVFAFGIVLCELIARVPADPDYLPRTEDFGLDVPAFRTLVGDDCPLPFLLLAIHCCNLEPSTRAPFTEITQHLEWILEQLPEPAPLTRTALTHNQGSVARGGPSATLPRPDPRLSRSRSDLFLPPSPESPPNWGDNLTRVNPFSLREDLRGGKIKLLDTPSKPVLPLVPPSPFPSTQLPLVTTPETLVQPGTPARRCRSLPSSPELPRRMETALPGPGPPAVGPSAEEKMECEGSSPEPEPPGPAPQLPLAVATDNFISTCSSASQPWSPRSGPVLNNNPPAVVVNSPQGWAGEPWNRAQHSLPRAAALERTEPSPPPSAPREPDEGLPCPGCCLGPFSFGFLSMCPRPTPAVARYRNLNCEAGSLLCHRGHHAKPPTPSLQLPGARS
TTBK1, sequence (Q5TCY1 whole entry): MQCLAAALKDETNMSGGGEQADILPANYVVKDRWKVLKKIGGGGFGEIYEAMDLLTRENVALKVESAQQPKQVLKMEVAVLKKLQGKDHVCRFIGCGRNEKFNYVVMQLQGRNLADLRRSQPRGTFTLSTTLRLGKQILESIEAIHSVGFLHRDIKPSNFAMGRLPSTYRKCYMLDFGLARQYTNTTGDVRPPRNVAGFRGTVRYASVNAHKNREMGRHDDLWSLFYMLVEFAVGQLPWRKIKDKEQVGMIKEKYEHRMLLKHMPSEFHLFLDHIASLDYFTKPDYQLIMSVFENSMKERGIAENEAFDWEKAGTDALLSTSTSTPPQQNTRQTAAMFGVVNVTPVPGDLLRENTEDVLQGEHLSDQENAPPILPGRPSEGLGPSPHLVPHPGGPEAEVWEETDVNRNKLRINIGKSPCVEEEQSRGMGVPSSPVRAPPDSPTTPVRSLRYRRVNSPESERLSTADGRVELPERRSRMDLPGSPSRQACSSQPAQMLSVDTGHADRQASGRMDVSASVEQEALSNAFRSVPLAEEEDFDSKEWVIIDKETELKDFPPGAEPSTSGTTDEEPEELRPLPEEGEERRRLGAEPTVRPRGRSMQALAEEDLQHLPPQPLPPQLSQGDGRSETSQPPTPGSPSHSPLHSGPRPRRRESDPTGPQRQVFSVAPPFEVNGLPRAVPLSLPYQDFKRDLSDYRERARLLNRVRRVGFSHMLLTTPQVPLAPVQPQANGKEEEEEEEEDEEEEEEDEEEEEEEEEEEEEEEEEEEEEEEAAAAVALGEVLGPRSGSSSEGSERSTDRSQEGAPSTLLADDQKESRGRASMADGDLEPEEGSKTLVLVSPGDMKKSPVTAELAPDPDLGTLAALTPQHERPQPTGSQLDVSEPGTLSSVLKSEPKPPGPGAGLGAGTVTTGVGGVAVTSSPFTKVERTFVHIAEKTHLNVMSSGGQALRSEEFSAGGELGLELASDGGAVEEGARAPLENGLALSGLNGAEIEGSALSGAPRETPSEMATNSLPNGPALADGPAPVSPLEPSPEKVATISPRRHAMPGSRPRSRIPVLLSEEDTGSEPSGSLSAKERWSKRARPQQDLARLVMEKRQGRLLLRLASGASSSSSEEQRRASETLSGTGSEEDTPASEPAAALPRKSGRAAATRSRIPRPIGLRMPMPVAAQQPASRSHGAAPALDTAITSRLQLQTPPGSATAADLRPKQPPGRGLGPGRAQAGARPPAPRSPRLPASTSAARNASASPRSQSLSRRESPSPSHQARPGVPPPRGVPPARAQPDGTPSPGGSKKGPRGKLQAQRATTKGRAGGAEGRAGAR

Cc1nc(Nc2ncc(C(=O)Nc3c(C)cccc3Cl)s2)cc(N2CCN(CCO)CC2)n1 [Dasatinib]
remaining activity at 0.1 µM [1]: 1 ± 1% | remaining activity at 1 µM [1]: 0% | remaining activity at 0.1 µM [2]: 50 ± 3% | remaining activity at 1 µM [2]: 8% | remaining activity at 0.1 µM [3]: 112 ± 8% | remaining activity at 1 µM [3]: 112 ± 1% | remaining activity at 0.1 µM [4]: 108% | remaining activity at 1 µM [4]: 102 ± 9% | remaining activity at 0.1 µM [5]: 102 ± 14% | remaining activity at 1 µM [5]: 108 ± 13% | Expression of FIZZ, YM1 and Mgl2 [6]: without affecting the expression | EC50 [7]: 0.11 µM | IL-10 production at optimal dose [7]: induced IL-10 production to similar levels as HG-9-91-01 | remaining activity at 0.1 µM [8]: 109 ± 1% | remaining activity at 1 µM [8]: 121 ± 27% | remaining activity at 0.1 µM [9]: 6 ± 1%

COc1cc(Nc2c(C#N)cnc3cc(OCCCN4CCN(C)CC4)c(OC)cc23)c(Cl)cc1Cl [Bosutinib, bosutinib]
remaining activity at 0.1 µM [1]: 22 ± 1% | remaining activity at 1 µM [1]: 2% | remaining activity at 0.1 µM [2]: 82 ± 15% | remaining activity at 1 µM [2]: 61 ± 2% | remaining activity at 0.1 µM [3]: 95 ± 2% | remaining activity at 1 µM [3]: 114 ± 3% | remaining activity at 0.1 µM [4]: 99 ± 14% | remaining activity at 1 µM [4]: 105 ± 2% | remaining activity at 0.1 µM [5]: 107 ± 12% | remaining activity at 1 µM [5]: 120 ± 4% | Expression of FIZZ, YM1 and Mgl2 [6]: without affecting the expression | EC50 [7]: 0.51 µM | IL-10 production at optimal dose [7]: induced IL-10 production to similar levels as HG-9-91-01 | remaining activity at 0.1 µM [8]: 99 ± 4% | remaining activity at 1 µM [8]: 109 ± 18% | remaining activity at 0.1 µM [9]: 96 ± 1% | remaining activity at 1 µM ([9]; 1 µM): 79%
